Data on 1 molecule can be found in article PMC9177545, “3-oxo-C12:2-HSL, quorum sensing molecule from human intestinal microbiota, inhibits pro-inflammatory pathways in immune cells via bitter taste receptors” (Scientific Reports, 2022).

This test concerns the target T1, TAS2R138 (Mus musculus, UniProt Q7TQA6).
T1 construct: endogenous in cells; host or cells: RAW264.7 murine macrophages (ATCC)
T1 sequence (Q7TQA6 1-331): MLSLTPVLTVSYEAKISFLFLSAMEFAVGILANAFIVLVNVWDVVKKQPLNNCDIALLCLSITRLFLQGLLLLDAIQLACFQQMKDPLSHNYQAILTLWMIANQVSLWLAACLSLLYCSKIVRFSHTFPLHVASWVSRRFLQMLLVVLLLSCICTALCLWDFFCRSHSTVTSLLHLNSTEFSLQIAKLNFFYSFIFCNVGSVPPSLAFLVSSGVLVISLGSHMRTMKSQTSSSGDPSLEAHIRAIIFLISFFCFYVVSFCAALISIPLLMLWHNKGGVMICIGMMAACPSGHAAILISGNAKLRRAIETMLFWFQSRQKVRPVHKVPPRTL
As to the kind of experiment: TAS2R38/TAS2R138 inhibition experiment: TNFα secretion of RAW264.7 cells pre-treated with probenecid. It is filed as cell-based. The conditions noted are these: 1 mM probenecid, one hour before LPS and IFNγ, six hours. How it is done:
In RAW264.7 cells, inflammation was triggered with LPS (10 ng/mL, Sigma) and IFNγ (10 U/mL, R&Dsystems) for 2 h or 6 h, depending on the experiments. PBMC were exposed to LPS (10 ng/mL) and AHL for 24 h. For TAS2R38 inhibition experiments, cells were exposed to TAS2R38 allosteric inhibitor probenecid (1 mM, Sigma) for one hour before adding AHLs and the inflammatory cocktail, without changing the media.
At the end of cell treatment, the medium was centrifuged at 300g for 5 min at 4 °C. Supernatant was frozen at − 80 °C until ELISA assays. TNFα and IL-1β ELISA kits were purchased from R&D systems and performed according to the manufacturer’s instructions. Briefly, plates were coated with a capture antibody and incubated overnight. Wells were blocked using 1% bovine serum albumin-PBS solution (Sigma), then exposed to cell supernatants at room temperature for two hours. Wells were washed and incubated with the detection antibody for an additional two hours. After thorough washing, Streptavidin-HRP solution was added for 20 min. Wells were washed, then incubated with TMB (Biolegend) solution for 20 min and the reaction was stopped using 1 M H2SO4. Absorbance was measured by a spectrometer (FLUOstar Omega; BMG Labtech) at 450 nm and the absorbance at 540 nm was subtracted.

For the molecule `CCCN(CCC)S(=O)(=O)c1ccc(C(=O)O)cc1` [probenecid, reference compound], the “effect on TNFα secretion in activated cells cultured in absence of 3-oxo-C12:2-HSL” value is given as “no effect”.
